Data on twelve compounds can be found in ChEMBL document CHEMBL1146091, “Benzoylphenylurea sulfur analogues with potent antitumor activity” (J Med Chem, 2006).

For one test, the target named is Tubulin (Homo sapiens) (UniProt P68371+Q9H4B7+P0DPH7+P68366+Q13509+Q71U36+P04350+Q3ZCM7+P07437+P68363+Q9BQE3+Q6PEY2+Q13885+Q9BVA1+Q9BUF5). As to the kind of experiment: Inhibition of [3H]colchicine binding to tubulin at 5 uM. The format is protein-complex assay.
The test system of the next test is PANC-1. The experiment in a line: Cytotoxicity against human Panc1 cell line by MTT assay. Type of test: functional, cell-based. (Tetrazolium dyes change colour on reduction, which living cells bring about.)
Another test has as its system Panc430. As to the kind of experiment: Cytotoxicity against human Panc430 cell line by MTT assay. The format is functional, cell-based.
The subject of the next test is Panc203. The experiment in a line: Cytotoxicity against human Panc203 cell line by MTT assay. The format is functional, cell-based.
The next test relates to Panc1005. As to the kind of experiment: Cytotoxicity against human Panc1005 cell line by MTT assay. Type of test: functional, cell-based.
Another test has as its system MIA PaCa-2. The experiment in a line: Cytotoxicity against human Miapaca2 cell line by MTT assay. The format is functional, cell-based.
Another test relates to Hs 766. The experiment in a line: Cytotoxicity against human HS766 cell line by MTT assay. The format is functional, cell-based.
A further test has as its system CWR22R. As to the kind of experiment: Cytotoxicity against human CWR22R cell line by MTT assay. Type of test: functional, cell-based. The following applies: 22Rv1.
The next test has as its system LAPC4. As to the kind of experiment: Cytotoxicity against human LAPC4 cell line by MTT assay. The format is functional, cell-based.
Test [1] has as its system MCF7. The experiment in a line: Induction of apoptosis in human MCF7 cell line at 10 nM after 48 hrs. Type of test: functional.
In test [2] the test system is MCF7. The experiment in a line: Induction of apoptosis in human MCF7 cell line at 30 nM after 48 hrs. Type of test: functional.
The subject of test [3] is MCF7. As to the kind of experiment: Induction of apoptosis in human MCF7 cell line at 100 nM after 48 hrs. The format is functional.
Another test concerns the target Tubulin. The experiment in a line: Inhibition of tubulin polymerization. Type of test: protein-complex assay, Homo sapiens.
In the next test the test system is LNCaP. The experiment in a line: Cytotoxicity against human LnCaP cell line by MTT assay. The format is functional, cell-based.
In the next test the test system is ASPC1. As to the kind of experiment: Cytotoxicity against human ASPC1 cell line by MTT assay. The format is functional, cell-based.

As usually defined, the inhibition is the percentage by which the read-out fell short of the control. A lower inhibition goes with a weak effect. As a reminder, the IC50 is the concentration that gives 50% inhibition. A higher IC50 goes with weaker potency.

In turn, `COc1cc([C@@H]2c3cc4c(cc3[C@H](O)[C@H]3COC(=O)[C@H]23)OCO4)cc(OC)c1OC` yielded an inhibition at Tubulin (Homo sapiens) of 77%.
For `O=C(NC(=O)c1ccccc1[N+](=O)[O-])Nc1ccc(Sc2ncc(Br)cn2)cc1`, the IC50 worked out at 0.085 µM in the test with PANC-1; 0.09 µM in the test on Panc430; 0.7 µM with Panc203; 10 µM in the test with Panc1005; 0.086 µM with MIA PaCa-2; 0.088 µM in the test with Hs 766. Further, the IC50 with CWR22R came to 0.05 µM; with LAPC4 it was 0.05 µM; against Tubulin, 2.1 µM; in the test on LNCaP, 0.05 µM; with ASPC1 it was 1 µM. In addition, the values for the Activity with MCF7 [1], in the test on MCF7 [2] and in the test on MCF7 [3] were 29.7%, 51.2% and 53.6%, respectively. Besides, the inhibition at Tubulin (Homo sapiens) was found to be 17%.
Take `O=C(NC(=O)c1ccccc1[N+](=O)[O-])Nc1ccc(Sc2ncccn2)cc1`: the results for the IC50 in the test on CWR22R, in the test with LAPC4 and with LNCaP were 5 µM, 0.6 µM and 0.5 µM, respectively.
Take `Cc1cc(NC(=O)NC(=O)c2ccccc2N(C)C)ccc1Oc1ncc(Br)cn1`: the IC50 in the test with PANC-1 is 0.7 µM; in the test with Panc430, 0.8 µM; with Panc203 it was 0.95 µM; in the test with Panc1005, 5 µM; with MIA PaCa-2, 0.85 µM; with Hs 766, 1 µM. Moreover, the IC50 in the test with CWR22R came to 1 µM; in the test on LAPC4, 0.25 µM; in the test on LNCaP it was 0.5 µM; in the test on ASPC1, 0.85 µM. Moreover, the Activity stood at 16.1% in the test on MCF7 [1], 19.5% in the test on MCF7 [2] and 27.7% in the test on MCF7 [3].
Take `Nc1ccccc1C(=O)NC(=O)Nc1ccc(Sc2ncccn2)cc1`: the IC50 is 7.5 µM in the test with PANC-1; 6.5 µM with Panc430; 5.5 µM in the test with Panc203; over 10 µM in the test on Panc1005; 7 µM with MIA PaCa-2; 8 µM in the test on Hs 766. The IC50 in the test with ASPC1 was determined as 6 µM.
Take `O=C(NC(=O)c1ccccc1[N+](=O)[O-])Nc1ccc(Oc2ncc(Br)cn2)cc1`: the IC50 was 0.68 µM in the test with PANC-1; 10 µM in the test on Panc430; over 10 µM in the test on Panc203; over 10 µM in the test with Panc1005; 0.74 µM with MIA PaCa-2; 0.47 µM with Hs 766. For the same compound, the IC50 in the test with CWR22R is 5 µM; in the test on LAPC4 it was 0.2 µM; on Tubulin it was 4.7 µM; in the test with LNCaP, 1 µM; with ASPC1 it was 0.77 µM. The compound further returned an inhibition on Tubulin (Homo sapiens) of 21%.
On to `Nc1ccccc1C(=O)NC(=O)Nc1ccc(Sc2ncc(Br)cn2)cc1`, for which the IC50 in the test with PANC-1 amounted to 0.09 µM; in the test on Panc430 it was 0.2 µM; in the test on Panc203 it was 0.085 µM; with Panc1005, 10 µM; in the test with MIA PaCa-2, 0.095 µM; with Hs 766 it was 0.7 µM. For the same compound, the IC50 with CWR22R is 0.5 µM; in the test with LAPC4, 0.1 µM; against Tubulin, over 40 µM; in the test on LNCaP, 0.5 µM; in the test with ASPC1 it was 0.45 µM.
`O=C(NC(=O)c1ccccc1[N+](=O)[O-])Nc1ccc(S(=O)(=O)c2ncc(Br)cn2)cc1`: the IC50 in the test on PANC-1 is over 10 µM; in the test with Panc430, over 10 µM; with Panc203 it was over 10 µM; with Panc1005 it was over 10 µM; in the test with MIA PaCa-2 it was 6.1 µM; with Hs 766, over 10 µM. Also, the IC50 in the test with CWR22R was over 10 µM; with LAPC4, 4 µM; with LNCaP it was 0.5 µM; with ASPC1 it was over 10 µM.
Take `O=C(NC(=O)c1ccccc1[N+](=O)[O-])Nc1ccc([S+]([O-])c2ncc(Br)cn2)cc1` (configuration not stated): the IC50 in the test on PANC-1 worked out at 6.5 µM; in the test with Panc430, 5.5 µM; in the test with Panc203, 5.5 µM; with Panc1005 it was 5.5 µM; in the test on MIA PaCa-2, 8 µM; in the test on Hs 766 it was 6.5 µM. This compound registered an IC50 in the test with ASPC1 of 2.5 µM.
In the case of `O=C(NC(=S)Nc1ccc(Sc2ncc(Br)cn2)cc1)c1ccccc1`, the IC50 with PANC-1 was 9.5 µM; in the test with Panc430, 7.5 µM; in the test on Panc203, over 10 µM; with Panc1005 it was over 10 µM; with MIA PaCa-2 it was 10 µM; with Hs 766, 8.5 µM. Moreover, the IC50 is over 10 µM with CWR22R, 6 µM with LAPC4, over 10 µM in the test on LNCaP and 10 µM in the test with ASPC1.
Regarding `O=C(NC(=O)c1ccccc1)Nc1ccc(Sc2ncc(Br)cn2)cc1`, the IC50 was over 10 µM in the test on PANC-1; 2 µM in the test with Panc430; 7.5 µM in the test with Panc203; over 10 µM in the test with Panc1005; 5 µM in the test on MIA PaCa-2; 5.5 µM in the test on Hs 766. This compound also came in with an IC50 with ASPC1 of over 10 µM.
Consider `Nc1ccccc1C(=O)NC(=O)Nc1ccc(Oc2ncc(Br)cn2)cc1`, for which the IC50 was 3.5 µM with PANC-1; over 10 µM in the test on Panc430; over 10 µM in the test on Panc203; over 10 µM in the test on Panc1005; 0.92 µM with MIA PaCa-2; 0.27 µM in the test with Hs 766. The IC50 in the test on CWR22R is 2 µM; in the test with LAPC4, 0.75 µM; against Tubulin, 36 µM; with LNCaP, 0.75 µM; in the test with ASPC1, 5.2 µM.
